# Measurements published in US20120082658A1, “Methods for the Treatment of Allergic Diseases” (VentiRx Pharmaceuticals, Inc., priority 2010, published 2012).
# Experiments:
# TLR4 = molecular target: T1, TLR4 (Homo sapiens, UniProt O00206+Q9Y6Y9); assay: HEK293 cells transfected with human TLR4, NF-κB driven reporter; type: cell-based
# T1 construct: expressed in transfected cells; host or cells: HEK293
# Protocol: (§1) FIG. 8 is two graphs depicting the potency and selectivity of VTX-378 for TLR8. The half-maximal effective concentration (EC50) for VTX-378 activation of TLR8 and TLR7 was assessed in peripheral blood mononuclear cells (PBMCs) by the amount of secreted TNFα (A) and by the activity of NF-κB (B) from 15 healthy donors and also in HEK293 cells transfected with various human TLRs.
# (§2) Preclinical studies were performed with VTX-378, the active pharmaceutical ingredient in VTX-1463. The specificity of VTX-378 for human TLR8 relative to other TLRs was assessed in transfected Human Embryonic Kidney 293 (HEK293) cells engineered to express individual TLRs (2-9) via transfection, and assessed using an NF-κB driven reporter system. […] The pharmacologic effects of VTX-378 were characterized in vitro using isolated human peripheral blood mononuclear cells (PBMCs).
# human whole blood = assay: Co-culture of human whole blood, IL-12 and IL-10 production; type: cell-based
# Excerpt: FIG. 9 is two graphs depicting that VTX-378 stimulates production of IL-12 and IL-10.
# [1] = tested on: ragweed-sensitized beagle dogs; assay: Model of allergic rhinitis in ragweed-sensitized beagle dogs (acoustic rhinometry, nasal mediators); type: in vivo, beagle dog
# Protocol: FIG. 1 is four graphs establishing that one day pretreatment with VTX-378 reduces nasal congestion.
# The therapeutic activity of VTX-378 was assessed in a well characterized model of allergic rhinitis in ragweed-sensitized beagle dogs (FIGS. 1-7). Acoustic rhinometry (AcR) can be used to measure the direct effect on the nasal mucosa following nasal instillation of ragweed antigen.
# human TLR8 = molecular target: T2, human TLR8 (Homo sapiens, UniProt Q9NR97); assay: HEK293 cells transfected with human TLR8, NF-κB driven reporter; type: cell-based; conditions: read-out: half maximal effective concentration (EC50), activation of TLR8
# T2 construct: expressed in transfected cells; host or cells: HEK293
# T2 sequence (Q9NR97 27-1041): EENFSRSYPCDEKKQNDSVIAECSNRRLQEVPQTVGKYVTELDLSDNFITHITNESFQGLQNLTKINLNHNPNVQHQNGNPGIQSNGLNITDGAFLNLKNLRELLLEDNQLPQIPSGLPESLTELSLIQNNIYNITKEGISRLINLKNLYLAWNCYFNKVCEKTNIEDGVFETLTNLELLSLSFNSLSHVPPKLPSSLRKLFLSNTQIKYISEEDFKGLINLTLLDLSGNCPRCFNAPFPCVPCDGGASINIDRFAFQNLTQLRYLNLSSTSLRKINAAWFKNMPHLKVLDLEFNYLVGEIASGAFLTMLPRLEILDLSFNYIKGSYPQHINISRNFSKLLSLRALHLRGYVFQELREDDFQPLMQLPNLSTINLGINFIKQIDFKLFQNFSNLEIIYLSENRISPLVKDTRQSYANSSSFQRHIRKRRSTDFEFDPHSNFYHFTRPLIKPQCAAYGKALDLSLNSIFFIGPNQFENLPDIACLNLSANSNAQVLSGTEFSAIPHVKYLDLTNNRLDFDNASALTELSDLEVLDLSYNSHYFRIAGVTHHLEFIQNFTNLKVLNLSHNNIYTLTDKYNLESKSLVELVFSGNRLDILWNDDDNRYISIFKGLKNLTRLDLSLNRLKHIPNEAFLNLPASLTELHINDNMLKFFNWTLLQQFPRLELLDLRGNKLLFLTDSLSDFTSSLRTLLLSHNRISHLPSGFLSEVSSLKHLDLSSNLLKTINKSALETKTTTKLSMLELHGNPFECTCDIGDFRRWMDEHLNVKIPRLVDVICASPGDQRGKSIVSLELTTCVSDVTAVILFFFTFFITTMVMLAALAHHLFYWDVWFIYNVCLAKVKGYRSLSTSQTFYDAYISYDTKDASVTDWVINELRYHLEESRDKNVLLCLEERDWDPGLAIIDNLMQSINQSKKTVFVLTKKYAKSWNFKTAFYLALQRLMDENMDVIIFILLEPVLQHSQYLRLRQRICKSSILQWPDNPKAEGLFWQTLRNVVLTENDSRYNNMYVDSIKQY
# Protocol: as §1, §2
# [2] = single dose 1000 ug intranasal one day prior to ragweed challenge
# T1 sequence (O00206 24-839): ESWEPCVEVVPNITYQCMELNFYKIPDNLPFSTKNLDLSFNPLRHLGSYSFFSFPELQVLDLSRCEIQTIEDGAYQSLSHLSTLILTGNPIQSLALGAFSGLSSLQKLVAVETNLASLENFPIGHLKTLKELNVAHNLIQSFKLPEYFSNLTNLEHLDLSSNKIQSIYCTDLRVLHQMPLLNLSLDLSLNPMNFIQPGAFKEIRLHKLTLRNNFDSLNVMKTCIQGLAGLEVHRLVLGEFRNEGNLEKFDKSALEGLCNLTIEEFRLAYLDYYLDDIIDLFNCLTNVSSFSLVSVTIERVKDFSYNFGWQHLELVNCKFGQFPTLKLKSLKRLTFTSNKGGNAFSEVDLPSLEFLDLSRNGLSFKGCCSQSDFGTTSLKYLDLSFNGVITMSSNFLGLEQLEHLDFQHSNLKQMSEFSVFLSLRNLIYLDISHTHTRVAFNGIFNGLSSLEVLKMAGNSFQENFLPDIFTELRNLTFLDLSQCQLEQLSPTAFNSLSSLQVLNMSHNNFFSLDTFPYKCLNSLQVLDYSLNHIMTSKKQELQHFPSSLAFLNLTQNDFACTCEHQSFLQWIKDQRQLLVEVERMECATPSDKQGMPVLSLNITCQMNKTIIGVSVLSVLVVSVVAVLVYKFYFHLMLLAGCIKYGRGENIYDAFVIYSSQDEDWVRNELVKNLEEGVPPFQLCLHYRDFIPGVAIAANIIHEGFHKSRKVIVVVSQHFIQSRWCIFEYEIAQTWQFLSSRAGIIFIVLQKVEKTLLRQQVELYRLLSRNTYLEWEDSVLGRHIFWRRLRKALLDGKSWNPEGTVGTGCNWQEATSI
# T1 sequence (Q9Y6Y9 17-160 limits assumed): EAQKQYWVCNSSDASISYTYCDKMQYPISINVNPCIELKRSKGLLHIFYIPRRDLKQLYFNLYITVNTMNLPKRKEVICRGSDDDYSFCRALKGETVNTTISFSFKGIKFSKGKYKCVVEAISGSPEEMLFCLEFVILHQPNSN
compound,measurement,setting,value
CCCN(CCC)C(=O)C1=Cc2ccc(-c3ccc(C(=O)N4CCCC4)cc3)cc2N=C(N)C1 [VTX-378],activity on TLR4,TLR4,minimal to no activity
same,production of IL-10,human whole blood,dose dependent increase
same,production of IL-12,human whole blood,dose dependent increase
same,"production of allergic mediators (nasal histamine, leukotrienes C4/D4/E4, prostaglandin D2, prostaglandin E2)",[1]; dose not given,significantly reduced
same,allergic response to antigen challenge (acoustic rhinometry),[1]; intranasal 100-1000 mcg,"dose-dependent, statistically significant reduction"
same,level of nasal histamine,[1]; single dose 100 ug,less significant
same,level of nasal leukotrienes C4/D4/E4,[1]; single dose 100 ug,less significant
same,level of nasal prostaglandin D2,[1]; single dose 100 ug,less significant
same,level of nasal prostaglandin E2,[1]; single dose 100 ug,less significant
same,allergic responses (nasal congestion),"[1]; single dose 100 ug, 500 ug and 1000 ug intranasal one day prior to ragweed challenge",significantly attenuated allergic responses
same,level of nasal histamine,[1]; [2],significantly reduced
same,level of nasal leukotrienes C4/D4/E4,[1]; [2],significantly reduced
same,level of nasal prostaglandin D2,[1]; [2],significantly reduced
same,level of nasal prostaglandin E2,[1]; [2],significantly reduced
same,attenuation of nasal congestion,[1]; single dose of 1000 mcg intranasal before ragweed challenge,56.5%±10.0
same,allergic responses (nasal congestion),[1]; two 250 ug doses intranasal one day and four-day prior to ragweed challenge,significantly attenuated allergic responses
same,allergic responses (nasal congestion),"[1]; two 1000 ug doses intranasal, one day and four-day or one day and eight-day prior to ragweed challenge",significantly attenuated allergic responses
same,improvement of nasal congestion,[1]; two doses of 1000 mcg separated by 4 days,65.4%±10.3
same,improvement of nasal congestion,[1]; two doses of 1000 mcg separated by 7 days,71.9%±7.7
same,EC50,human TLR8,~100 nM
